Results published in US6852673B2, “Herbicidal pyridine compounds” (BASF Aktiengesellschaft, priority 1998, dated 2005).

Experiments:
Format in all cases: in vivo
[1] = system: Glycine max (GLXMA); assay: Pre-emergence herbicidal evaluation, soyabeans
Text: (§1) The pre-emergence herbicidal activity of the compounds of the present invention is exemplified by the following test in which the seeds of a variety of monocotyledonous and dicotyledonous plants are seperately mixed with potting soil and planted on top of approximately one inch of soil in separate pots. After planting, the pots are sprayed with the selected aqueous acetone solution containing test compound in sufficient quantity to provide the equivalent of about 0.0125 to 0.4 kg per hectare of test compound per pot. The treated pots are then placed on greenhouse benches, watered and cared for in accordance with conventional greenhouse procedures. From 2 to 4 weeks after treatment, the tests are terminated and each pot is examined and rated according to the rating system set forth below.

[2] = system: Hordeum vulgare (HORVW); assay: Pre-emergence herbicidal evaluation, winter barley
Text: as §1

[3] = system: Oryza sativum (ORYSA); assay: Pre-emergence herbicidal evaluation, rice
Text: as §1

[4] = system: Triticum aestivum (TRZAW); assay: Pre-emergence herbicidal evaluation, winter wheat
Text: as §1

[5] = system: Abutilon theophrasti (ABUTH); assay: Pre-emergence herbicidal evaluation, velvetleaf
Text: as §1

[6] = system: Ambrosia artemiisifolia (AMBEL); assay: Pre-emergence herbicidal evaluation, ragweed
Text: as §1

[7] = system: Galium aparine (GALAP); assay: Pre-emergence herbicidal evaluation, cleaver
Text: as §1

[8] = system: Ipomoea hederacea (IPOHE); assay: Pre-emergence herbicidal evaluation, morning glory
Text: as §1

[9] = system: Lamium purpureum (LAMPU); assay: Pre-emergence herbicidal evaluation, purple deadnettle
Text: as §1

[10] = system: Matricaria inodora (MATIN); assay: Pre-emergence herbicidal evaluation, mayweed
Text: as §1

[11] = system: Solanum nigrum (SOLNI); assay: Pre-emergence herbicidal evaluation, black nightshade
Text: as §1

[12] = system: Alopecurus myosuroides (ALOMY); assay: Pre-emergence herbicidal evaluation, black grass
Text: as §1

[13] = system: Echinochloa grus galli (ECHCG); assay: Pre-emergence herbicidal evaluation, barnyard grass
Text: as §1

[14] = system: Setaria viridis (SETVI); assay: Pre-emergence herbicidal evaluation, green foxtail
Text: as §1

[15] = system: Oryza sativum (ORYSA); assay: Post-emergence herbicidal evaluation, rice; conditions: rated 2 to 4 weeks after treatment
Procedure: (§2) [table] [table] […] These acetone solutions are diluted with water and the resulting formulations applied at dosage levels equivalent of about 0.03 to 0.4 kg per hectare of test compound per pot. After spraying the plants are placed on greenhouse benches and are cared for in the usual manner, commensurate with conventional greenhouse practices. From 2 to 4 weeks after treatment, the seedling plants are examined and rated according to the rating system provided above. A rating 0 indicates growth as untreated control, a rating 9 indicates death.

[16] = system: Triticum aestivum (TRZAW); assay: Post-emergence herbicidal evaluation, winter wheat; conditions: rated 2 to 4 weeks after treatment
Procedure: as §2

[17] = system: Zea mays (ZEAMX); assay: Post-emergence herbicidal evaluation, maize; conditions: rated 2 to 4 weeks after treatment
Procedure: as §2

[18] = system: Abutilon theophrasti (ABUTH); assay: Post-emergence herbicidal evaluation, velvetleaf; conditions: rated 2 to 4 weeks after treatment
Procedure: as §2

[19] = system: Ambrosia artemiisifolia (AMBEL); assay: Post-emergence herbicidal evaluation, ragweed; conditions: rated 2 to 4 weeks after treatment
Procedure: as §2

[20] = system: Galium aparine (GALAP); assay: Post-emergence herbicidal evaluation, cleaver; conditions: rated 2 to 4 weeks after treatment
Procedure: as §2

[21] = system: Ipomoea hederacea (IPOHE); assay: Post-emergence herbicidal evaluation, morning glory; conditions: rated 2 to 4 weeks after treatment
Procedure: as §2

[22] = system: Lamium purpureum (LAMPU); assay: Post-emergence herbicidal evaluation, purple deadnettle; conditions: rated 2 to 4 weeks after treatment
Procedure: as §2

[23] = system: Matricaria inodora (MATIN); assay: Post-emergence herbicidal evaluation, mayweed; conditions: rated 2 to 4 weeks after treatment
Procedure: as §2

[24] = system: Solanum nigrum (SOLNI); assay: Post-emergence herbicidal evaluation, black nightshade; conditions: rated 2 to 4 weeks after treatment
Procedure: as §2

[25] = system: Stellaria media (STEME); assay: Post-emergence herbicidal evaluation, chickweed; conditions: rated 2 to 4 weeks after treatment
Procedure: as §2

CC(Cl)=CCOc1cc(C)cc(Oc2cc(C(F)(F)F)nn2C)n1 [Example 11]
quite selective: selectivity in soybeans [1]
0 (0 - No effect): GLXMA rating ([1]; dose 0.013 kg/ha) | TRZAW rating ([4]; dose 0.013 kg/ha) | LAMPU rating ([22]; dose 0.03 kg/ha)
6 (6 - Herbicidal effect): HORVW rating ([2]; dose 0.4 kg/ha) | GALAP rating ([7]; dose 0.1 kg/ha) | ALOMY rating ([12]; dose 0.013 kg/ha) | ECHCG rating ([13]; dose 0.025 kg/ha) | GALAP rating ([20]; dose 0.03 kg/ha) | IPOHE rating ([21]; dose 0.03 kg/ha) | SOLNI rating ([24]; dose 0.1 kg/ha) | STEME rating ([25]; dose 0.1 kg/ha)
9 (9 - Complete kill): ABUTH rating ([5]; dose 0.1 kg/ha) | ABUTH rating ([5]; dose 0.4 kg/ha) | AMBEL rating ([6]; dose 0.025 kg/ha) | AMBEL rating ([6]; dose 0.1 kg/ha) | AMBEL rating ([6]; dose 0.4 kg/ha) | IPOHE rating ([8]; dose 0.4 kg/ha) | LAMPU rating ([9]; dose 0.4 kg/ha) | MATIN rating ([10]; dose 0.013 kg/ha) | MATIN rating ([10]; dose 0.025 kg/ha) | MATIN rating ([10]; dose 0.1 kg/ha) | MATIN rating ([10]; dose 0.4 kg/ha) | SOLNI rating ([11]; dose 0.4 kg/ha) | ALOMY rating ([12]; dose 0.025 kg/ha) | ALOMY rating ([12]; dose 0.1 kg/ha) | ALOMY rating ([12]; dose 0.4 kg/ha) | ECHCG rating ([13]; dose 0.4 kg/ha) | SETVI rating ([14]; dose 0.1 kg/ha) | SETVI rating ([14]; dose 0.4 kg/ha) | GALAP rating ([20]; dose 0.1 kg/ha) | GALAP rating ([20]; dose 0.4 kg/ha) | IPOHE rating ([21]; dose 0.1 kg/ha) | IPOHE rating ([21]; dose 0.4 kg/ha)
superior activity: activity against Abutilon [5] | activity against Setaria [14]
5 (5 - Definite injury): LAMPU rating ([9]; dose 0.013 kg/ha) | SOLNI rating ([11]; dose 0.013 kg/ha) | ZEAMX rating ([17]; dose 0.1 kg/ha) | ZEAMX rating ([17]; dose 0.4 kg/ha) | ABUTH rating ([18]; dose 0.03 kg/ha)
8 (8 - Approaching complete kill): GALAP rating ([7]; dose 0.4 kg/ha) | IPOHE rating ([8]; dose 0.1 kg/ha) | LAMPU rating ([9]; dose 0.025 kg/ha) | LAMPU rating ([9]; dose 0.1 kg/ha) | SOLNI rating ([11]; dose 0.1 kg/ha) | ECHCG rating ([13]; dose 0.1 kg/ha) | SETVI rating ([14]; dose 0.025 kg/ha) | ABUTH rating ([18]; dose 0.4 kg/ha) | AMBEL rating ([19]; dose 0.4 kg/ha) | LAMPU rating ([22]; dose 0.4 kg/ha) | MATIN rating ([23]; dose 0.1 kg/ha) | MATIN rating ([23]; dose 0.4 kg/ha) | SOLNI rating ([24]; dose 0.4 kg/ha) | STEME rating ([25]; dose 0.4 kg/ha)
4 (4 - Injury): GLXMA rating ([1]; dose 0.4 kg/ha) | TRZAW rating ([4]; dose 0.4 kg/ha) | IPOHE rating ([8]; dose 0.025 kg/ha) | ECHCG rating ([13]; dose 0.013 kg/ha) | ORYSA rating ([15]; dose 0.4 kg/ha) | STEME rating ([25]; dose 0.03 kg/ha)
7 (7 - Good herbicidal effect): ABUTH rating ([5]; dose 0.025 kg/ha) | AMBEL rating ([6]; dose 0.013 kg/ha) | SOLNI rating ([11]; dose 0.025 kg/ha) | SETVI rating ([14]; dose 0.013 kg/ha) | ABUTH rating ([18]; dose 0.1 kg/ha) | AMBEL rating ([19]; dose 0.1 kg/ha) | MATIN rating ([23]; dose 0.03 kg/ha)
1 (1 - Trace effect): GLXMA rating ([1]; dose 0.025 kg/ha) | ORYSA rating ([3]; dose 0.013 kg/ha) | ORYSA rating ([3]; dose 0.025 kg/ha) | GALAP rating ([7]; dose 0.013 kg/ha) | ORYSA rating ([15]; dose 0.03 kg/ha)
2 (2 - Slight effect): GLXMA rating ([1]; dose 0.1 kg/ha) | ORYSA rating ([3]; dose 0.1 kg/ha) | TRZAW rating ([4]; dose 0.025 kg/ha) | TRZAW rating ([4]; dose 0.1 kg/ha) | IPOHE rating ([8]; dose 0.013 kg/ha) | ZEAMX rating ([17]; dose 0.03 kg/ha)
3 (3 - Moderate effect): HORVW rating ([2]; dose 0.013 kg/ha) | HORVW rating ([2]; dose 0.025 kg/ha) | HORVW rating ([2]; dose 0.1 kg/ha) | ORYSA rating ([3]; dose 0.4 kg/ha) | ABUTH rating ([5]; dose 0.013 kg/ha) | GALAP rating ([7]; dose 0.025 kg/ha) | ORYSA rating ([15]; dose 0.1 kg/ha) | TRZAW rating ([16]; dose 0.03 kg/ha) | TRZAW rating ([16]; dose 0.1 kg/ha) | TRZAW rating ([16]; dose 0.4 kg/ha) | AMBEL rating ([19]; dose 0.03 kg/ha) | LAMPU rating ([22]; dose 0.1 kg/ha) | SOLNI rating ([24]; dose 0.03 kg/ha)
